Assay results taken from patent US8314239B2, “Modulators of cystic fibrosis transmembrane conductance regulator” (priority 2008, dated 2012).
Where a name gives a salt, the structure may show the parent alone.

Target: T1, ΔF508-CFTR (Homo sapiens, UniProt P13569, DEL508-508)
T1 construct: expressed in transfected cells
Experiment: Membrane potential optical assay for ΔF508-CFTR potentiation (double-addition HTS, FLIPR III)
Assay type: cell-based
Conditions: for Emax: 100% efficacy is the maximum response obtained with 4-methyl-2-(5-phenyl-1H-pyrazol-3-yl)phenol
Description: Membrane Potential Optical Methods for Assaying ΔF508-CFTR Modulation Properties of Compounds
The assay utilizes fluorescent voltage sensing dyes to measure changes in membrane potential using a fluorescent plate reader (e.g., FLIPR III, Molecular Devices, Inc.) as a readout for increase in functional ΔF508-CFTR in NIH 3T3 cells. The driving force for the response is the creation of a chloride ion gradient in conjunction with channel activation by a single liquid addition step after the cells have previously been treated with compounds and subsequently loaded with a voltage sensing dye.
To identify potentiators of ΔF508-CFTR, a double-addition HTS assay format was developed. This HTS assay utilizes fluorescent voltage sensing dyes to measure changes in membrane potential on the FLIPR III as a measurement for increase in gating (conductance) of ΔF508 CFTR in temperature-corrected ΔF508 CFTR NIH 3T3 cells. The driving force for the response is a Cl^− ion gradient in conjunction with channel activation with forskolin in a single liquid addition step using a fluorescent plate reader such as FLIPR III after the cells have previously been treated with potentiator compounds (or DMSO vehicle control) and subsequently loaded with a redistribution dye.
Bath Solution #1: (in mM) NaCl 160, KCl 4.5, CaCl2 2, MgCl2 1, HEPES 10, pH 7.4 with NaOH.
Chloride-Free Bath Solution: Chloride Salts in Bath Solution #1 are Substituted with Gluconate Salts.
NIH3T3 mouse fibroblasts stably expressing ΔF508-CFTR are used for optical measurements of membrane potential. The cells are maintained at 37° C. in 5% CO2 and 90% humidity in Dulbecco's modified Eagle's medium supplemented with 2 mM glutamine, 10% fetal bovine serum, 1×NEAA, β-ME, 1× pen/strep, and 25 mM HEPES in 175 cm^2 culture flasks. For all optical assays, the cells were seeded at ˜20,000/well in 384-well matrigel-coated plates and cultured for 2 hrs at 37° C. before culturing at 27° C. for 24 hrs. for the potentiator assay. For the correction assays, the cells are cultured at 27° C. or 37° C. with and without compounds for 16-24 hours. Electrophysiological Assays for assaying ΔF508-CFTR modulation properties of compounds.
Compounds of the invention are useful as modulators of ATP binding cassette transporters. Examples of activities and efficacies of the compounds of Formula (I) are shown below in Table 3. The compound activity is illustrated with “+++” if activity was measured to be less than 2.0 μM, “++” if activity was measured to be from 2 μM to 5.0 μM, “+” if activity was measured to be greater than 5.0 μM, and “−” if no data was available. The efficacy is illustrated with “+++” if efficacy was calculated to be greater than 100%, “++” if efficacy was calculated to be from 100% to 25%, “+” if efficacy was calculated to be less than 25%, and “−” if no data was available. It should be noted that 100% efficacy is the maximum response obtained with 4-methyl-2-(5-phenyl-1H-pyrazol-3-yl)phenol.

T1 sequence (P13569 with tags, fused parts or gaps DEL508-508): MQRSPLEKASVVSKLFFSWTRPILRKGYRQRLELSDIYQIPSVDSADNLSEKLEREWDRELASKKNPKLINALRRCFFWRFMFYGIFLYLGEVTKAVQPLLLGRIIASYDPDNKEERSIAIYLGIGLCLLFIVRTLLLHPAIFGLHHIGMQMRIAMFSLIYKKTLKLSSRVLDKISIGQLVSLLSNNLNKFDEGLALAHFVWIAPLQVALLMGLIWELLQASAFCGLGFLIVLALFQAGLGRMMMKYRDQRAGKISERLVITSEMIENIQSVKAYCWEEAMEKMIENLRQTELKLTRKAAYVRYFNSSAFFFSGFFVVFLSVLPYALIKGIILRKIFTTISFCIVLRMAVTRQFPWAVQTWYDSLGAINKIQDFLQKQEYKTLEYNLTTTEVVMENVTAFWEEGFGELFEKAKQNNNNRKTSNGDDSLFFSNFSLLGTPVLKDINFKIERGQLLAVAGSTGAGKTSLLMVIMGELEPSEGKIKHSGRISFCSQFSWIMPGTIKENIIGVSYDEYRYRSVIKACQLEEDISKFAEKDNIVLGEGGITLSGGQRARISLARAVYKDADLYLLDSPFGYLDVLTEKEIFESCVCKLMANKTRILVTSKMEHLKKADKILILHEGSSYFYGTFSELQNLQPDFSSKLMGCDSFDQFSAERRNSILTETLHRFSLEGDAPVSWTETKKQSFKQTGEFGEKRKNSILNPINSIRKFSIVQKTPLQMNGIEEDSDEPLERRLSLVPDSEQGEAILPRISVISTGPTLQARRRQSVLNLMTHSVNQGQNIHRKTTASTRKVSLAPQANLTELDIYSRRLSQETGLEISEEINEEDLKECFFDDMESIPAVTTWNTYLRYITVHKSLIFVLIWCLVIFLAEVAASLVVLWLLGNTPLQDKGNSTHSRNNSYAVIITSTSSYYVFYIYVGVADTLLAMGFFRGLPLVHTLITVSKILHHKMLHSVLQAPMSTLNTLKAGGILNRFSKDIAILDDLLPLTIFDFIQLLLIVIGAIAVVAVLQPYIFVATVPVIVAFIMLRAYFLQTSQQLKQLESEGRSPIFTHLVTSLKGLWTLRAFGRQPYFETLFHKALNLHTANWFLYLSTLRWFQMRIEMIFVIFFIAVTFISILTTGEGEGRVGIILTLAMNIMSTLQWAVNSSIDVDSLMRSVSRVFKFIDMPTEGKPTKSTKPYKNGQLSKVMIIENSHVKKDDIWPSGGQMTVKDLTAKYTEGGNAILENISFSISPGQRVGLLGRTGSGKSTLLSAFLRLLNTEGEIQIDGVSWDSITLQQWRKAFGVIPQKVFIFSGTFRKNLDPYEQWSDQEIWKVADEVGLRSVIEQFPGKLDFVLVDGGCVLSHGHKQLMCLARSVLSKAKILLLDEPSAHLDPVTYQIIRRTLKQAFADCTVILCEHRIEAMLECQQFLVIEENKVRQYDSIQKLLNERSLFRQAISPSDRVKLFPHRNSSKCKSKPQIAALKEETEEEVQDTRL

Structure (SMILES)	EC50	Emax
Cc1cc(N2C3CCC2CC3)ncc1NC(=O)c1c[nH]c2cccc(C)c2c1=O [Compound 1, N-(6-(7-azabicyclo[2.2.1]heptan-7-yl)-4-methylpyridin-3-yl)-5-methyl-4-oxo-1,4-dihydroquinoline-3-carboxamide hydrochloride]	< 2 µM	25 to 100%
O=C(Nc1ccc(N2C3CCC2CC3)nc1C(F)(F)F)c1c[nH]c2cccc(C(F)(F)F)c2c1=O [Compound 2, N-(6-(7-azabicyclo[2.2.1]heptan-7-yl)-2-(trifluoromethyl)pyridin-3-yl)-4-oxo-5-(trifluoromethyl)-1,4-dihydroquinoline-3-carboxamide]	< 2 µM	25 to 100%
Cc1cccc2[nH]cc(C(=O)Nc3ccc(N4C5CCC4CC5)nc3C(F)(F)F)c(=O)c12 [Compound 3]	< 2 µM	25 to 100%
